According to publication PMC7872319, “Probing Biomolecular Interactions by a Pattern-Forming Peptide–Conjugate Sensor” (Bioconjugate Chemistry, 2020):
Entries after “also recorded” stand apart in the source; their conditions may differ. Read-outs that look alike come from different tables or passages of the source.

How the values were obtained:
[1] = molecular target: T1, MinD ATPase (Escherichia coli, UniProt P0AEZ3); details: read-out: IC50 of MinD ATPase activity; unconjugated ssDNA competitor added to MinD with common 10 nt + complementary 10 nt peptide conjugates; two independent assays, each three technical replicates; 95% CI (nM): 12-mer 60.3 to 81.9, 10-mer 393.6 to 772.0, 7-mer 1557.0 to 2730.0
T1 sequence (P0AEZ3 1-270): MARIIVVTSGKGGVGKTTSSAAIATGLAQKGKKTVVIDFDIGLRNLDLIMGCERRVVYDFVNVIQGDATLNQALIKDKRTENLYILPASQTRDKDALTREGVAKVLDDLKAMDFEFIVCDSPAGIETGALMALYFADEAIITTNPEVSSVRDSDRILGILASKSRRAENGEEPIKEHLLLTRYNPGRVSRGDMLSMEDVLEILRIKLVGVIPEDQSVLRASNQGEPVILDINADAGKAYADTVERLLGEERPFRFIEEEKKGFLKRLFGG

[2] = tested on: MinD; experiment: Self-organization assay: ssDNA competition with preformed dsDNA-peptide conjugate; format: biochemical, Escherichia coli; details: 160 nM common 10 nt and 10 nt peptide conjugates preincubated with 1 μM MinD, competitor added in increasing amounts
Experimental: Supported lipid bilayers (SLBs) were formed by fusion of SUVs in a 96-well plate with a glass bottom (Greiner Bio-One, Kremsmünster, Austria). Plates were cleaned for 30 s (30% power, 0.3 mbar) in a Zepto plasma cleaner (Diener electronic GmbH, Ebhausen, Germany) using oxygen as the process gas. Lipids were prepared as described above, except that sonication was used instead of freeze–thaw cycles to form SUVs. SUVs were added to each reaction chamber at a final concentration of 0.6 mg/mL and incubated for 2 min on a 37 °C warm heating block.
All self-organization assays were performed as previously described.[12],[30] […] For fluorescence imaging, MinD was doped with 30% ATTO655-KCK-MinD.
Imaging was performed on either a commercial Zeiss LSM800 or LSM780 confocal microscope each equipped with a Zeiss C-Apochromat 40X/1.20 water-immersion objective (Carl Zeiss AG, Oberkochen, Germany). ATTO655-KCK-MinD was excited at 640 nm and imaging was performed with a pinhole diameter of 1 Airy unit.
Image analysis was performed in Fiji with the Radial Profile plugin (https://imagej.nih.gov/ij/plugins/radial-profile.html) using custom macro scripts.[31],[32] To discriminate among different patterns and to further characterize them, two approaches were applied. In the first, autocorrelation analysis was performed for each image. A soft windowing function (raised-cosine window, 1 at the center and 0.75 at the edges) was applied to reduce edge effects. Then the autocorrelation image was computed, from which a radial amplitude profile was generated. The position of the first peak in the profile was identified as the correlation distance. Patterns were further analyzed by computing the percentage variation of the correlation intensity along the ring in the autocorrelation image, here defined as correlation dispersion. […] Once separated, the pattern types were further characterized on the basis of additional parameters. Specifically, for the quasi-stationary patterns we used the spot density, derived from the reciprocal of the squared correlation distance, or the correlation distance itself. […]

[3] = tested on: MinD; details: 1 μM MinD, 500 nM MinE(13-31)-biotin, 90 nM divalent streptavidin
[4] = molecular target: T1, MinD ATPase; experiment: MinD ATPase assay: free biotin competing with MinE(13-31)-biotin for divalent streptavidin; format: biochemical; parameters: His (N); made in house; host or cells: E. coli BL21 (DE3)
[5] = molecular target: T1, MinD ATPase; details: 1 μM MinD, controls: four technical replicates, unconjugated peptide or single unhybridized conjugate

## 12-mer: competitor ssDNA 5`-CTAGATGTATAA-3`, 12 overlaps (DNA, backbone not given here)
[1]
  IC50: 70.3 nM
[2]
  alteration/abolition of MinD patterns by ssDNA competitor: alteration, and ultimately abolition, of protein patterns; also recorded: clear transformation from propagating surface waves, through quasi-stationary patterns (reverse hexagons), to the complete abolition of protein patterns

## O=C(O)CCCC[C@@H]1SC[C@@H]2NC(=O)N[C@@H]21 [free biotin, biotin]
[3]
  free biotin concentration for complete abolition of patterns: approximately 50 nM
[4]
  IC50: 8.7 nM

## 10-mer: competitor ssDNA 5`-AGATGTATTT-3`, 8 overlaps (DNA, backbone not given here)
[1]
  IC50: 551 nM
[2]
  alteration/abolition of MinD patterns by ssDNA competitor: abolition of MinD self-organization, but only at higher concentrations in comparison to the 12-mer; also recorded: altered wavelengths of the protein patterns, before eventually abolishing them completely
[2]; listed as 10mer
  alteration/abolition of MinD patterns by ssDNA competitor: alteration, and ultimately abolition, of protein patterns

## N-term-NTANIAKERLQIIVAERRRGSGK(N3)-C-term [MinE(13-31)]
[5]
  MinD ATPase stimulation (in words): only able to slightly stimulate MinD’s ATPase activity
[5]; listed as unconjugated peptide
  MinD ATPase stimulation (in words): slightly elevated
